Numbering of substitutions follows the chain as printed.
Experiments:
ACVR1 = target: T1, ACVR1 (Homo sapiens, UniProt Q04771); assay: ThermoFisher (Lantha) kinase assay, inhibition of ACVR1; format: biochemical; details: ThermoFisher Assay, in vitro
T1 construct: purchased ThermoFisher
T1 sequence (Q04771 21-509): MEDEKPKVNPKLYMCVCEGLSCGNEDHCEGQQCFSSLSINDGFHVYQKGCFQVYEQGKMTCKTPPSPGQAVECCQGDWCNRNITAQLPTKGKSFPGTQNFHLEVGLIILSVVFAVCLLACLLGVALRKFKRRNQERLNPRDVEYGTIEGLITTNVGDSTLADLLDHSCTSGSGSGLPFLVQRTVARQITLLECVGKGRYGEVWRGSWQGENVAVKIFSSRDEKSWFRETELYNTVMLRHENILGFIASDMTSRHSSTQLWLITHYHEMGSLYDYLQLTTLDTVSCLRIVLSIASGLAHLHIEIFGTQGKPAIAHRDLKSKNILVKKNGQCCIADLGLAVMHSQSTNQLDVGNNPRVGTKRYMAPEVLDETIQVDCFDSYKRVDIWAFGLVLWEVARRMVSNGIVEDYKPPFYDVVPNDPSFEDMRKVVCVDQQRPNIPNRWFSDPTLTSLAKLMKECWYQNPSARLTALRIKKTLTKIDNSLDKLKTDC

ACVRL1 = target: T2, ACVRL1 (Homo sapiens, UniProt P37023); assay: ThermoFisher (Lantha) kinase assay, inhibition of ACVRL1; format: biochemical; details: in vitro, NA = not active at 1 μM
T2 construct: purchased ThermoFisher
T2 sequence (P37023 22-503): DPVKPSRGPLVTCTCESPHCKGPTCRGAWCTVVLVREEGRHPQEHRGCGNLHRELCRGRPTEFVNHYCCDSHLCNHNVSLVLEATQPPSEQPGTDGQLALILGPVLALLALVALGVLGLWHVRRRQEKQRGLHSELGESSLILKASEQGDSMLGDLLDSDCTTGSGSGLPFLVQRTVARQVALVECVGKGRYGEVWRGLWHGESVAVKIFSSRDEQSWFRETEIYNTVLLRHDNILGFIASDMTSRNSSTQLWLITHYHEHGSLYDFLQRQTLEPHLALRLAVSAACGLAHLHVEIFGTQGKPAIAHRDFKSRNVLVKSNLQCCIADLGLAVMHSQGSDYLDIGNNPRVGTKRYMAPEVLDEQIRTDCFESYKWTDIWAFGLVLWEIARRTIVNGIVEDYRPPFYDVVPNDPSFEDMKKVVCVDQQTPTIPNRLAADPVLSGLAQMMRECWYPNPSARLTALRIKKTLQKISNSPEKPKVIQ

[1] = Metabolic stability in mouse liver microsomes; format: in vitro ADME; details: some cells add hours in brackets
Source text: (§1) Exemplary compounds of the present disclosure have been evaluated for metabolic stability in mouse and human liver microsomes.

[2] = Metabolic stability in human liver microsomes; format: in vitro ADME; details: some cells add hours in brackets
Source text: as §1

ACVR1^WT = target: T3, ACVR1^WT (Homo sapiens, UniProt Q04771); assay: Promega NanoBRET live-cell target engagement, ACVR1; format: cell-based; details: in cellulo; NI = No inhibition at 40 μM
T3 sequence (Q04771 21-509): T1 sequence (Q04771 21-509)
Source text: (§2) The Promega NanoBRET target engagement system involves cell-based competitive displacement of a fluorescent NanoBRET tracer bound reversibly to a NanoLuc fusion protein. Test compounds displace the tracer dependent on their affinity for the target and reduce […] the NanoBRET signal. […]

ACVR1^R206H = target: T4, ACVR1^R206H (Homo sapiens, UniProt Q04771, R206H); assay: Promega NanoBRET live-cell target engagement, ACVR1 (R206H); format: cell-based; details: in cellulo; NI = No inhibition at 40 μM
T4 sequence (Q04771 21-509 R206H): T1 sequence (Q04771 21-509) with R186H
Source text: as §2

| Compound | IC50 (ACVR1) [nM] | IC50 (ACVRL1) [nM] | also measured |
| --- | --- | --- | --- |
| 1-cyclopropyl-N-(3-(4-(2,3-dimethylphenyl)piperazin-1-yl)propyl)-2-(3,4,5-trimethoxyphenyl)-1H-benzo[d]imidazole-6-carboxamide [CDD-2468] | 135 | 4050 | – |
| CNC(=O)[C@H]1CC[C@H](n2c(-c3cc(I)c(OC)c(OC)c3)nc3ccc(C(=O)NCCCN4CCN(c5ccccc5)CC4)cc32)C1 [CDD-2205, 2-(3-iodo-4,5-dimethoxyphenyl)-1-((1S,3S)-3-(methylcarbamoyl)cyclopentyl)-N-(3-(4-phenylpiperazin-1-yl)propyl)-1H-benzo[d]imidazole-6-carboxamide] | 3.7 | 14.8 | – |
| CNC(=O)[C@H]1CC[C@H](n2c(-c3cc(OC)c(OC)c(OC)c3)nc3ccc(C(=O)NCCCN4CCN(c5ccccc5)CC4)cc32)C1 [CDD-2206, 1-((1S,3S)-3-(methylcarbamoyl)cyclopentyl)-N-(3-(4-phenylpiperazin-1-yl)propyl)-2-(3,4,5-trimethoxyphenyl)-1H-benzo[d]imidazole-6-carboxamide] | 5.3 | 26.9 | – |
| CNC(=O)[C@H]1CC[C@H](n2c(-c3cc(OC)c(OC)c(OC)c3)nc3ccc(C(=O)NC4COc5ccc(Cl)cc54)cc32)C1 (stereo partly drawn) [CDD-2233, N-(5-chloro-2,3-dihydrobenzofuran-3-yl)-1-((1S,3S)-3-(methylcarbamoyl)cyclopentyl)-2-(3,4,5-trimethoxyphenyl)-1H-benzo[d]imidazole-6-carboxamide] | 19.9 | 20.1 | – |
| CNC(=O)[C@H]1C[C@H](n2c(-c3cc(OC)c(OC)c(OC)c3)nc3ccc(C(=O)NCCCN4CCN(c5ccccc5)CC4)cc32)C1 [CDD-2235, 1-((1r,3r)-3-(methylcarbamoyl)cyclobutyl)-N-(3-(4-phenylpiperazin-1-yl)propyl)-2-(3,4,5-trimethoxyphenyl)-1H-benzo[d]imidazole-6-carboxamide] | – | – | Metabolism MLM [1]: 5.7 min; Metabolism HLM [2]: 9.7 min |
| COc1cc(-c2nc3ccc(C(=O)NCCCN4CCN(c5ccccc5)CC4)cc3[nH]2)cc(OC)c1OC [CDD-2236, N-(3-(4-phenylpiperazin-1-yl)propyl)-2-(3,4,5-trimethoxyphenyl)-1H-benzo[d]imidazole-6-carboxamide] | 65.6 | 534 | – |
| CNC(=O)[C@H]1C[C@H](n2c(-c3cc(OC)c(OC)c(OC)c3)nc3ccc(C(=O)NCCCN4CCN(C)CC4)cc32)C1 [CDD-2280, 1-((1r,3r)-3-(methylcarbamoyl)cyclobutyl)-N-(3-(4-methylpiperazin-1-yl)propyl)-2-(3,4,5-trimethoxyphenyl)-1H-benzo[d]imidazole-6-carboxamide] | – | – | Metabolism MLM [1]: 48 min; Metabolism HLM [2]: 70.7 min; IC50 (ACVR1^WT): > 40000 nM; IC50 (ACVR1^R206H): > 40000 nM |
| CNC(=O)[C@H]1C[C@H](n2c(-c3cc(OC)c(OC)c(OC)c3)nc3ccc(C(=O)NCCCN4CCN(c5cccc(C)c5C)CC4)cc32)C1 [CDD-2341, N-(3-(4-(2,3-dimethylphenyl)piperazin-1-yl)propyl)-1-((1r,3r)-3-(methylcarbamoyl)cyclobutyl)-2-(3,4,5-trimethoxyphenyl)-1H-benzo[d]imidazole-6-carboxamide] | 3.6 | 12.3 | – |
| COc1cc(-c2nc3ccc(C(=O)NCCC(=O)N4CCN(c5cccc(C)c5C)CC4)cc3n2C2CCC2)cc(OC)c1OC [CDD-2467, 1-cyclobutyl-N-(3-(4-(2,3-dimethylphenyl)piperazin-1-yl)-3-oxopropyl)-2-(3,4,5-trimethoxyphenyl)-1H-benzo[d]imidazole-6-carboxamide] | – | – | Metabolism MLM [1]: 9.3 min; Metabolism HLM [2]: 13.6 min |
| COc1cc(OC)cc(-c2nc3ccc(C(=O)NCCCN4CCN(c5cccc(C)c5C)CC4)cc3n2C2CCC2)c1 [CDD-2469, 1-cyclobutyl-2-(3,5-dimethoxyphenyl)-N-(3-(4-(2,3-dimethylphenyl)piperazin-1-yl)propyl)-1H-benzo[d]imidazole-6-carboxamide] | – | – | IC50 (ACVR1^WT): 4720 nM; IC50 (ACVR1^R206H): 4450 nM |
| COc1ccc(-c2cccc(-c3nc4ccc(C(=O)NCCCN(C)C)cc4n3C3CCC3)n2)cc1 [CDD-2620, 1-cyclobutyl-N-(3-(dimethylamino)propyl)-2-(6-(4-methoxyphenyl)pyridin-2-yl)-1H-benzo[d]imidazole-6-carboxamide] | – | > 1000 | – |
| CN(C)CCCNC(=O)c1ccc2nc(-c3cccc(-c4ccccc4)c3)n(C3CCC3)c2c1 [CDD-2621, 2-([1,1′-biphenyl]-3-yl)-1-cyclobutyl-N-(3-(dimethylamino)propyl)-1H-benzo[d]imidazole-6-carboxamide] | – | > 1000 | – |
| CNC(=O)[C@@H]1CC[C@@H](n2c(-c3cc(OC)c(OC)c(OC)c3)nc3ccc(C(=O)NCCCN4CCN(c5ccccc5)CC4)cc32)C1 [CDD-2622, 1-((1R,3R)-3-(methylcarbamoyl)cyclopentyl)-N-(3-(4-phenylpiperazin-1-yl)propyl)-2-(3,4,5-trimethoxyphenyl)-1H-benzo[d]imidazole-6-carboxamide] | 5.7 | 11.5 | – |
| CN(C)CCCNC(=O)c1ccc2nc(-c3cncc4ccccc34)n(C3CCC3)c2c1 [CDD-2623, 1-cyclobutyl-N-(3-(dimethylamino)propyl)-2-(isoquinolin-4-yl)-1H-benzo[d]imidazole-6-carboxamide] | – | > 1000 | – |
| CNC(=O)[C@H]1C[C@H](n2c(-c3cc(F)cc(OC)c3)nc3ccc(C(=O)NCCCN(C)C)cc32)C1 [CDD-2682, N-(3-(dimethylamino)propyl)-2-(3-fluoro-5-methoxyphenyl)-1-((1r,3r)-3-(methylcarbamoyl)cyclobutyl)-1H-benzo[d]imidazole-6-carboxamide] | 87.1 | 407 | – |
| CNC(=O)[C@H]1C[C@H](n2c(-c3ccc(F)c(OC)c3)nc3ccc(C(=O)NCCCN(C)C)cc32)C1 [CDD-2683, N-(3-(dimethylamino)propyl)-2-(4-fluoro-3-methoxyphenyl)-1-((1r,3r)-3-(methylcarbamoyl)cyclobutyl)-1H-benzo[d]imidazole-6-carboxamide] | 77.4 | 190 | – |
| CNC(=O)[C@H]1C[C@H](n2c(-c3cccc(OC)c3)nc3ccc(C(=O)NCCCN(C)C)cc32)C1 [CDD-2684, N-(3-(dimethylamino)propyl)-2-(3-methoxyphenyl)-1-((1r,3r)-3-(methylcarbamoyl)cyclobutyl)-1H-benzo[d]imidazole-6-carboxamide] | 84 | 197 | – |
| CNC(=O)[C@H]1C[C@H](n2c(-c3ccc(OC)c(OC)c3)nc3ccc(C(=O)NCCCN(C)C)cc32)C1 [CDD-2685, 2-(3,4-dimethoxyphenyl)-N-(3-(dimethylamino)propyl)-1-((1r,3r)-3-(methylcarbamoyl)cyclobutyl)-1H-benzo[d]imidazole-6-carboxamide] | 121 | 390 | – |
| COc1cc(-c2nc3ccc(C(=O)NCCCN4CCN(C)C(c5ccccc5)C4)cc3n2C2CCC2)cc(OC)c1OC (centres unmarked) [CDD-2793, 1-cyclobutyl-N-(3-(4-methyl-3-phenylpiperazin-1-yl)propyl)-2-(3,4,5-trimethoxyphenyl)-1H-benzo[d]imidazole-6-carboxamide] | – | – | IC50 (ACVR1^WT): 2720 nM; IC50 (ACVR1^R206H): 4280 nM |
| COc1cc(-c2nc3ccc(C(=O)NCCN4CCN(C5CCCCC5)CC4)cc3n2C2CCC2)cc(OC)c1OC [CDD-2794, 1-cyclobutyl-N-(2-(4-cyclohexylpiperazin-1-yl)ethyl)-2-(3,4,5-trimethoxyphenyl)-1H-benzo[d]imidazole-6-carboxamide] | – | – | IC50 (ACVR1^WT): 2090 nM; IC50 (ACVR1^R206H): 3160 nM |
| COc1cc(-c2nc3ccc(C(=O)NCC4(O)CCN(Cc5ccccc5)CC4)cc3n2C2CCC2)cc(OC)c1OC [CDD-2795, N-((1-benzyl-4-hydroxypiperidin-4-yl)methyl)-1-cyclobutyl-2-(3,4,5-trimethoxyphenyl)-1H-benzo[d]imidazole-6-carboxamide] | – | – | IC50 (ACVR1^WT): 387 nM; IC50 (ACVR1^R206H): 459 nM |
